Measurements as given in US10800772B2 (Gilead Sciences, Inc., priority 2016, dated 2020).
Read-outs that look alike come from different tables or passages of the source.

Tests used:
Format in all cases: cell-based, HIV-1
HIV-IIIb (wildtype) = test: Antiviral assay in MT4 cells, HIV-IIIb wildtype; conditions: read-out: WT EC50
Procedure, shortened: (§1)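 First, MT4 cells are infected with HIV-IIIb for 3 h at 37 °C (0.004 m.o.i.). Next, 2000 cells are added per well to 3-fold serial compound dilutions and cultured for 5 days. Finally, CellTiter-Glo chemiluminescence is read and EC50 is derived from the 50% signal decrease.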

HIV-IIIb IN T174I BT = test: Antiviral assay in MT4 cells, HIV-IIIb IN T174I BT virus (from viral breakthrough); conditions: Human immunodeficiency virus 1, IIIB, MT4, 120 h, read-out: T174I BT EC50, MT4 cells, HIV-IIIb IN T174I BT (viral breakthrough), 5 days, CellTiter-Glo
Procedure, shortened: as §1

HIV-IIIb IN T174I DE = test: Antiviral assay in MT4 cells, HIV-IIIb IN T174I DE virus (from dose escalation passaging); conditions: Human immunodeficiency virus 1, IIIB, MT4, 120 h, read-out: T174I DE EC50, MT4 cells, HIV-IIIb IN T174I DE (dose escalation), 5 days, CellTiter-Glo
Procedure, shortened: as §1

[1] = Human immunodeficiency virus 1, IIIB, MT4, 120 h
[2] = Human immunodeficiency virus 1, 120 h, MT4 cells, HIV-IIIb wildtype, 5 days, CellTiter-Glo

**Q.** With `CCn1nc(C2CCN(C3COC3)CC2)c2cc(-c3nc4cc(C)c([C@H](OC(C)(C)C)C(=O)O)c(-c5ccc(Cl)cc5)c4s3)ccc21` [Compound 35, (S)-2-(tert-butoxy)-2-(7-(4-chlorophenyl)-2-(1-ethyl-3-(1-(oxetan-3-yl)piperidin-4-yl)-1H-indazol-5-yl)-5-methylbenzo[d]thiazol-6-yl)acetic acid] as the compound, how does the EC50 (HIV-IIIb (wildtype); [1]) read?
**A.** 4 nM

**Q.** And the EC50 (HIV-IIIb IN T174I BT)?
**A.** 84 nM

**Q.** What about the EC50 (HIV-IIIb IN T174I DE) of the same compound?
**A.** 238 nM

**Q.** `COC(=O)N1CC(N2CCC(c3nn(C)c4ncc(-c5nc6cc(C)c([C@H](OC(C)(C)C)C(=O)O)c(-c7ccc(Cl)cc7)c6s5)nc34)CC2)C1` [Compound 119, (S)-2-(tert-butoxy)-2-(7-(4-chlorophenyl)-2-(3-(1-(1-(methoxycarbonyl)azetidin-3-yl)piperidin-4-yl)-1-methyl-1H-pyrazolo[3,4-b]pyrazin-5-yl)-5-methylbenzo[d]thiazol-6-yl)acetic acid] was tested. Which EC50 (HIV-IIIb (wildtype); [1]) did it give?
**A.** 8 nM

**Q.** What about the EC50 (HIV-IIIb IN T174I BT) of the same compound?
**A.** 310 nM

**Q.** And the EC50 (HIV-IIIb IN T174I DE)?
**A.** 332 nM

**Q.** Which results are given for `Cc1cc2nc(-c3ccc4c(n3)c(C3CCN(C5CC5)CC3)nn4C)sc2c(-c2ccc(Cl)cc2)c1[C@H](OC(C)(C)C)C(=O)O` [Compound 187, (S)-2-(tert-butoxy)-2-(7-(4-chloro-phenyl)-2-(3-(1-cyclopropyl-piperidin-4-yl)-1-methyl-1H-pyrazolo[4,3-b]pyridin-5-yl)-5-methylbenzo[d]thiazol-6-yl) acetic acid]?
**A.** EC50 (HIV-IIIb (wildtype); [1]): 4 nM; EC50 (HIV-IIIb IN T174I BT): 339 nM; EC50 (HIV-IIIb IN T174I DE): 844 nM

**Q.** What does the source list for `CC(=O)N1CC(N2CCC(c3nn(C4CC4)c4ccc(-c5nc6cc(C)c([C@H](OC(C)(C)C)C(=O)O)c(-c7ccc(Cl)cc7)c6s5)nc34)CC2)C1` [Compound 182, (S)-2-(2-(3-(1-(1-acetylazetidin-3-yl)piperidin-4-yl)-1-cyclopropyl-1H-pyrazolo[4,3-b]pyridin-5-yl)-7-(4-chlorophenyl)-5-methylbenzo [d]thiazol-6-yl)-2-(tert-butoxy) acetic acid]?
**A.** EC50 (HIV-IIIb (wildtype); [1]): 2 nM; EC50 (HIV-IIIb IN T174I BT): 27 nM; EC50 (HIV-IIIb IN T174I DE): 59 nM

**Q.** Which EC50 (HIV-IIIb (wildtype); [1]) does the source give for `CCN1CCC(c2nn(C)c3ccc(-c4nc5cc(C)c([C@H](OC(C)(C)C)C(=O)O)c(-c6ccc(Cl)cc6)c5s4)cc23)C1` (stereo partly drawn) [Compound 64, (2S)-2-(tert-butoxy)-2-(7-(4-chlorophenyl)-2-(3-(1-ethylpyrrolidin-3-yl)-1-methyl-1H-indazol-5-yl)-5-methylbenzo[d]thiazol-6-yl)acetic acid] here?
**A.** 11 nM

**Q.** What about the EC50 (HIV-IIIb IN T174I BT) of the same compound?
**A.** 2840 nM

**Q.** What about the EC50 (HIV-IIIb IN T174I DE) of the same compound?
**A.** 2620 nM

**Q.** `Cc1cc2nc(-c3ccc4c(c3)c(N3CC5(CN(C)C5)C3)nn4C)sc2c(-c2ccc(Cl)cc2)c1[C@H](OC(C)(C)C)C(=O)O` [Compound 89, (S)-2-(tert-butoxy)-2-(7-(4-chlorophenyl)-5-methyl-2-(1-methyl-3-(6-methyl-2,6-diazaspiro[3.3]heptan-2-yl)-1H-indazol-5-yl)benzo[d]thiazol-6-yl)acetic acid] was tested. Which EC50 (HIV-IIIb (wildtype); [1]) did it give?
**A.** 107 nM

**Q.** What about the EC50 (HIV-IIIb IN T174I BT) of the same compound?
**A.** 57000 nM

**Q.** And the EC50 (HIV-IIIb IN T174I DE)?
**A.** 57000 nM

**Q.** With `COC(=O)N(C)C1CN(c2nn(C)c3ccc(-c4nc5cc(C)c([C@H](OC(C)(C)C)C(=O)O)c(-c6ccc(Cl)cc6)c5s4)cc23)C1` [Compound 102, (S)-2-(tert-butoxy)-2-(7-(4-chlorophenyl)-2-(3-(3-((methoxycarbonyl)(methyl)amino)azetidin-1-yl)-1-methyl-1H-indazol-5-yl)-5-methylbenzo[d]thiazol-6-yl)acetic acid] as the compound, how does the EC50 (HIV-IIIb (wildtype); [1]) read?
**A.** 13 nM

**Q.** And the EC50 (HIV-IIIb IN T174I BT)?
**A.** 934 nM

**Q.** What about the EC50 (HIV-IIIb IN T174I DE) of the same compound?
**A.** 1270 nM

**Q.** For `Cc1cc2nc(-c3ccc4c(c3)c(C3CN(C5COC5)C3)nn4C)sc2c(-c2ccc(Cl)cc2)c1[C@H](OC(C)(C)C)C(=O)O` [Compound 59, (S)-2-(tert-butoxy)-2-(7-(4-chlorophenyl)-5-methyl-2-(1-methyl-3-(1-(oxetan-3-yl)azetidin-3-yl)-1H-indazol-5-yl)benzo[d]thiazol-6-yl)acetic acid], which EC50 (HIV-IIIb (wildtype); [1]) is on record?
**A.** 8 nM

**Q.** What about the EC50 (HIV-IIIb IN T174I BT) of the same compound?
**A.** 883 nM

**Q.** And the EC50 (HIV-IIIb IN T174I DE)?
**A.** 1730 nM

**Q.** `Cc1cc2nc(-c3ccc4c(c3)c(C3CCN([C@@H]5CCN(C)C5)CC3)nn4C)sc2c(-c2ccc(Cl)cc2)c1[C@H](OC(C)(C)C)C(=O)O` [Compound 164, (S)-2-(tert-butoxy)-2-(7-(4-chloro-phenyl)-5-methyl-2-(1-methyl-3-(1-((R)-1-methyl-pyrrolidin-3-yl)piperidin-4-yl)-1H-indazol-5-yl)benzo[d]thiazol-6-yl)acetic acid] was tested. Which EC50 (HIV-IIIb (wildtype); [1]) did it give?
**A.** 15 nM

**Q.** What about the EC50 (HIV-IIIb IN T174I BT) of the same compound?
**A.** 184 nM

**Q.** And the EC50 (HIV-IIIb IN T174I DE)?
**A.** 183 nM

**Q.** `CO[C@@H]1CCN(c2nn(C)c3ccc(-c4nc5cc(C)c([C@H](OC(C)(C)C)C(=O)O)c(-c6ccc(Cl)cc6)c5s4)cc23)C1` [Compound 140, (S)-2-(tert-butoxy)-2-(7-(4-chloro-phenyl)-2-(3-((R)-3-methoxy-pyrrolidin-1-yl)-1-methyl-1H-indazol-5-yl)-5-methylbenzo[d]thiazol-6-yl) acetic acid] was tested. Which EC50 (HIV-IIIb (wildtype); [1]) did it give?
**A.** 29 nM

**Q.** What about the EC50 (HIV-IIIb IN T174I BT) of the same compound?
**A.** 2370 nM

**Q.** And the EC50 (HIV-IIIb IN T174I DE)?
**A.** 2630 nM

**Q.** What does the source list for `Cc1cc2nc(-c3ccc4c(c3)c(N3CCN5C(=O)COC[C@H]5C3)nn4C)sc2c(-c2ccc(Cl)cc2)c1[C@H](OC(C)(C)C)C(=O)O` [Compound 205, (S)-2-(tert-butoxy)-2-(7-(4-chloro-phenyl)-5-methyl-2-(1-methyl-3-((R)-4-oxohexa-hydropyrazino [2,1-c][1,4]oxazin-8(1H)-yl)-1H-indazol-5-yl)benzo[d]thiazol-6-yl)acetic acid]?
**A.** EC50 (HIV-IIIb (wildtype); [1]): 7 nM; EC50 (HIV-IIIb IN T174I BT): 457 nM; EC50 (HIV-IIIb IN T174I DE): 736 nM

**Q.** For `CC(=O)N1CC[C@@H]1CN1CCC(c2nn(C)c3ccc(-c4nc5cc(C)c([C@H](OC(C)(C)C)C(=O)O)c(-c6ccc(Cl)cc6)c5s4)cc23)CC1` [Compound 148, (S)-2-(2-(3-(1-(((R)-1-acetyl-azetidin-2-yl)methyl)piperidin-4-yl)-1-methyl-1H-indazol-5-yl)-7-(4-chloro-phenyl)-5-methylbenzo[d]thiazol-6-yl)-2-(tert-butoxy) acetic acid], which EC50 (HIV-IIIb (wildtype); [1]) is on record?
**A.** 12 nM

**Q.** What about the EC50 (HIV-IIIb IN T174I BT) of the same compound?
**A.** 143 nM

**Q.** And the EC50 (HIV-IIIb IN T174I DE)?
**A.** 199 nM

**Q.** What does the source list for `Cc1cc2nc(-c3ccc4c(c3)c(N3CC5CC(C3)N5C)nn4C)sc2c(-c2ccc(Cl)cc2)c1[C@H](OC(C)(C)C)C(=O)O` [Compound 101, (2S)-2-(tert-butoxy)-2-(7-(4-chlorophenyl)-5-methyl-2-(1-methyl-3-(6-methyl-3,6-diazabicyclo[3.1.1]heptan-3-yl)-1H-indazol-5-yl)benzo[d]thiazol-6-yl)acetic Acid]?
**A.** EC50 (HIV-IIIb (wildtype); [2]): 58 nM; EC50 (HIV-IIIb IN T174I BT): 57000 nM; EC50 (HIV-IIIb IN T174I DE): 57000 nM

**Q.** With `Cc1cc2nc(-c3ccc4c(c3)c(N3CC(N5CCOCC5)C3)nn4C)sc2c(-c2ccc(Cl)cc2)c1[C@H](OC(C)(C)C)C(=O)O` [Compound 88, (S)-2-(tert-butoxy)-2-(7-(4-chlorophenyl)-5-methyl-2-(1-methyl-3-(3-morpholinoazetidin-1-yl)-1H-indazol-5-yl)benzo[d]thiazol-6-yl)acetic acid] as the compound, how does the EC50 (HIV-IIIb (wildtype); [1]) read?
**A.** 10 nM

**Q.** What about the EC50 (HIV-IIIb IN T174I BT) of the same compound?
**A.** 1240 nM

**Q.** What about the EC50 (HIV-IIIb IN T174I DE) of the same compound?
**A.** 1700 nM

**Q.** Which results are given for `Cc1cc2nc(-c3ccc4c(c3)c(N3C5CCC3CN(C3COC3)C5)nn4C)sc2c(-c2ccc(Cl)cc2)c1[C@H](OC(C)(C)C)C(=O)O` [Compound 13, (2S)-2-(tert-butoxy)-2-(7-(4-chlorophenyl)-5-methyl-2-(1-methyl-3-(3-(oxetan-3-yl)-3,8-diazabicyclo[3.2.1]octan-8-yl)-1H-indazol-5-yl)benzo[d]thiazol-6-yl)acetic Acid]?
**A.** EC50 (HIV-IIIb (wildtype); [2]): 10 nM; EC50 (HIV-IIIb IN T174I BT): 1230 nM; EC50 (HIV-IIIb IN T174I DE): 3130 nM
